Among the data in patent US20240066008A1, “Device and Antitumor Drug for the Treatment of Neoplastic Cells” (Telea Electronic Engineering SRL, priority 2021, published 2024) are cytotoxicity values, retold here.

This assay deals with A172 glioblastoma cells. Put plainly: Cell viability, Trypan blue exclusion assay. In kind it is cell-based. Particulars: Homo sapiens, A 172, TMZ 10 μM for 144 hours in combination with 24-hour QMR treatment (4 MHz current waves), vs TMZ alone, FIG. 12b, read-out: cell viability reduced more than the reduction obtained in cells treated with TMZ drug alone. On the procedure: Glioblastoma cell lines A172, T98G and U87MG were used. A172 and T98G cells (Sigma-Aldrich, St. Louis, MO, USA) were cultured in Dulbecco's Modified Eagle's Medium/Nutrient Mixture F-12 (DMEM/F12 GlutaMAX, Gibco, Thermo Fisher Scientific, Waltham, MA, USA) added with 10% foetal bovine serum (FBS) (Qualified Australian, Gibco, Thermo Fisher Scientific) and 1% penicillin/streptomycin (Sigma-Aldrich).
The cell lines were stimulated with QMR using a prototype QMR device from the company Telea (Telea Electronic Engineering, Sandrigo, VI, Italy). The device, suitably adapted for the present in vitro experiments, generated high-frequency sinusoidal alternating electric current waves of 4 MHz with harmonics from 4 to 64 MHz and had the following data: power supply 100÷230 V˜50/60 Hz; maximum output power, 5 W/400Ω.
QMR was applied to the cells using a pair of electrodes that were placed inside a 100 mm Petri dish, at the edge, and connected to the generator device. […] This value was measured by means of three independent measurements with a data-logger probe (iLog, Escort Scunthorpe, UK) placed in the culture medium. […]
For these analyses, the cells were treated for 144 hours with 10-25 μM of TMZ administered at the same time as or after QMR stimulation. […] Cell viability, apoptosis and the cell cycle were assessed after 144 hours. […]

For the compound `Cn1nnc2c(C(N)=O)ncn2c1=O` [TMZ, temozolomide], the cytotoxicity at 10 µM was around 12%.
